In patent US11401270B2, “Alcoxyamino derivatives for treating pain and pain related conditions” (ESTEVE PHARMACEUTICALS, S.A., priority 2017, dated 2022):
Like-named read-outs stand apart in the source and are kept apart here.

Biological target: Human α2δ-1 subunit of Cav2.2 calcium channel (Homo sapiens (Human), UniProt P54289)
Assay: Binding Assay to Human α2δ-1 Subunit of Cav2.2 Calcium Channel
Conditions: human α2δ-1 enriched membranes, 15 nM [3H]-Gabapentin, read-out: Ki(nM) alpha2delta Hum
Experimental: Binding Assay to Human α2δ-1 Subunit of Cav2.2 Calcium Channel.
NSB (non specific binding) was measured by adding 10 μM pregabalin. The binding of the test compound was measured in five different concentrations. After 60 min incubation at 27° C., binding reaction was terminated by filtering through Multiscreen GF/C (Millipore) presoaked in 0.5% polyethyleneimine in Vacuum Manifold Station, followed by 3 washes with ice-cold filtration buffer containing 50 mM Tris-HCl, pH 7.4.
Filter plates were dried at 60° C. for 1 hour and 30 μl of scintillation cocktail were added to each well before radioactivity reading.

Chain of Human α2δ-1 subunit of Cav2.2 calcium channel (P54289 25-1103): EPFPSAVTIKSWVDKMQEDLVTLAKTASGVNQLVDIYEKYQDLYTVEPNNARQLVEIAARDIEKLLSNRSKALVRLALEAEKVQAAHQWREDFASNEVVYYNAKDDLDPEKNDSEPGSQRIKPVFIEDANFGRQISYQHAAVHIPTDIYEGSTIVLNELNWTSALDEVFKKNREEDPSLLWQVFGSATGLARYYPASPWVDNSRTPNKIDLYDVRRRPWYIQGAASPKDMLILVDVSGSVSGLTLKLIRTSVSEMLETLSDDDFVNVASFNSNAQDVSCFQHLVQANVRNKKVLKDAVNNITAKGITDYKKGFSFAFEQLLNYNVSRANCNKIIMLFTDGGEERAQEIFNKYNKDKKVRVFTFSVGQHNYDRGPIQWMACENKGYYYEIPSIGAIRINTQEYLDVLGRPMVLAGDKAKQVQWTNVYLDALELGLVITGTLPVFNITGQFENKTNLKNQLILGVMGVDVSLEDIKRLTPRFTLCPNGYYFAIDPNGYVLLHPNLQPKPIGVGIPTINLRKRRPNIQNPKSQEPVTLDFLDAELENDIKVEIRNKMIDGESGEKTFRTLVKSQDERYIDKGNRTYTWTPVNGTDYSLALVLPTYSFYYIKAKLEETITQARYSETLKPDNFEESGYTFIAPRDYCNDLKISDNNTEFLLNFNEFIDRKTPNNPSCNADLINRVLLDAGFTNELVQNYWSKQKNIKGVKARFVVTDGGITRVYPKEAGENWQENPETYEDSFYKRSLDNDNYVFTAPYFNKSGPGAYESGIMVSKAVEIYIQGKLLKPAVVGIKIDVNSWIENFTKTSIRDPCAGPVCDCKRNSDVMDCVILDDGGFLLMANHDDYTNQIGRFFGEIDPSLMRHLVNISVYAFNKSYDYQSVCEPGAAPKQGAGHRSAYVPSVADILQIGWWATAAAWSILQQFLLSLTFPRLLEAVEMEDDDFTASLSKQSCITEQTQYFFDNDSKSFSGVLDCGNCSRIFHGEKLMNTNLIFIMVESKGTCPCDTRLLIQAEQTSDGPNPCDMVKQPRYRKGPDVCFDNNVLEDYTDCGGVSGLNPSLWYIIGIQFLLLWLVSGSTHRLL

SMILES | Ki (Table 1) [nM] | Ki (Table 2, dual compounds) [nM]
CNCCC(OCc1cccc(N2CCN(C)c3cc(F)cnc3C2=O)c1)c1ccccc1 (stereo not shown) [Example 27, 8-Fluoro-1-methyl-4-(3-((3-(methylamino)-1-phenylpropoxy)methyl)phenyl)-1,2,3,4-tetrahydro-5H-pyrido[3,2-e][1,4]diazepin-5-one] | 100 to 500 | –
CCNC[C@@H]1CN(C)CCN(c2cccc(O[C@@H](CCNC)c3ccccc3)c2)C1=O [Example 25, (R)-6-((ethylamino)methyl)-1-methyl-4-(3-((S)-3-(methylamino)-1-phenylpropoxy)phenyl)-1,4-diazepan-5-one] | > 3000 | –
CNCCC(Oc1cccc(N2CCN(C)c3cc(F)cnc3C2=O)c1)c1cccs1 (stereo not shown) [Example 74, 8-Fluoro-1-methyl-4-(3-(3-(methylamino)-1-(thiophen-2-yl)propoxy)phenyl)-1,2,3,4-tetrahydro-5H-pyrido[3,2-e][1,4]diazepin-5-one] | > 3000 | –
CNCC[C@@H](Oc1ccc(CN2CCN(C)c3ncccc3C2=O)cc1)c1cccc(F)c1 [Example 150, (R)-(4-(1-(3-fluorophenyl)-3-(methylamino)propoxy)benzyl)-1-methyl-1,2,3,4-tetrahydro-5H-pyrido[2,3-e][1,4]diazepin-5-one] | 500 to 3000 | 500 to 3000
CNCCC(OCc1cccc(N2CCN(C)c3nc(C)ccc3C2=O)c1)c1ccccc1 (stereo not shown) [Example 48, 1,8-Dimethyl-4-(3-((3-(methylamino)-1-phenylpropoxy)methyl)phenyl)-1,2,3,4-tetrahydro-5H-pyrido[2,3-e][1,4]diazepin-5-one] | 500 to 3000 | –
CNCCC(Oc1cccc(N2CCCN(C)CC2)c1)c1ccccc1 (stereo not shown) [Example 5, N-methyl-3-(3-(4-methyl-1,4-diazepan-1-yl)phenoxy)-3-phenylpropan-1-amine] | 500 to 3000 | –
CNCCC(Oc1cccc(N2CC(=O)N(C)c3ccccc3C2=O)c1)c1cccs1 (stereo not shown) [Example 51, 1-Methyl-4-(3-(3-(methylamino)-1-(thiophen-2-yl)propoxy)phenyl)-3,4-dihydro-1H-benzo[e][1,4]diazepine-2,5-dione] | > 3000 | –
CNCCC(OCc1cccc(N2CCN(C)c3cccnc3C2=O)c1)c1ccccc1 (stereo not shown) [Example 26, 1-Methyl-4-(3-((3-(methylamino)-1-phenylpropoxy)methyl)phenyl)-1,2,3,4-tetrahydro-5H-pyrido[3,2-e][1,4]diazepin-5-one] | 500 to 3000 | –
CNCCC(OCc1cccc(N2CCCCCC2=O)c1)c1cccs1 (stereo not shown) [Example 16, 1-(3-((3-(Methylamino)-1-(thiophen-2-yl)propoxy)methyl)phenyl)azepan-2-one] | 500 to 3000 | –
CCN[C@H]1CCCCN(c2cccc(O[C@@H](CCNC)c3cccs3)c2)C1=O [Example 19, (S)-3-(ethylamino)-1-(3-((S)-3-(methylamino)-1-(thiophen-2-yl)propoxy)phenyl)azepan-2-one] | 500 to 3000 | –
CNCC[C@H](OCc1cccc(N2CCN(C)c3ccccc3C2=O)c1)c1ccccc1 [Example 49] | > 3000 | –
CNCCC(Oc1cccc(CN2CCN(C)c3ccccc3C2=O)c1)c1ccccc1 (stereo not shown) [Example 113, 1-Methyl-4-(3-(3-(methylamino)-1-phenylpropoxy)benzyl)-1,2,3,4-tetrahydro-5H-benzo[e][1,4]diazepin-5-one] | > 3000 | –
CNCCC(Oc1cccc(N2CCN(C)c3ccccc3C2=O)c1)c1cccs1 (stereo not shown) [Example 53, 1-Methyl-4-(3-(3-(methylamino)-1-(thiophen-2-yl)propoxy)phenyl)-1,2,3,4-tetrahydro-5H-benzo[e][1,4]diazepin-5-one] | 500 to 3000 | –
CNCCC(OCc1ccc(N2CCN(C)c3ccccc3C2=O)cc1)c1ccccc1 (stereo not shown) [Example 46, 1-Methyl-4-(4-((3-(methylamino)-1-phenylpropoxy)methyl)phenyl)-1,2,3,4-tetrahydro-5H-benzo[e][1,4]diazepin-5-one] | > 3000 | –
CNCCC(Oc1cccc(CN2CCN(C)c3ccccc3C2=O)c1)c1cccs1 (stereo not shown) [Example 106, 1-Methyl-4-(3-(3-(methylamino)-1-(thiophen-yl)propoxy)benzyl)-1,2,3,4-tetrahydro-5H-benzo[e][1,4]diazepin-5-one] | 500 to 3000 | –
CNCCC(Oc1cccc(N2CCNCCC2=O)c1)c1cccs1 (stereo not shown) [Example 59, 4-(3-(3-(Methylamino)-1-(thiophen-2-yl)propoxy)phenyl)-1,4-diazepan-5-one] | 500 to 3000 | –
CNCCC(OCc1cccc(N2CCN(C)c3ccccc3C2=O)c1)c1ccccc1F (stereo not shown) [Example 39, 4-(3-((1-(2-Fluorophenyl)-3-(methylamino)propoxy)methyl)phenyl)-1-methyl-1,2,3,4-tetrahydro-5H-benzo[e][1,4]diazepin-5-one] | 100 to 500 | –
CNCC[C@H](OCc1cccc(N2CCN(C)c3ccccc3C2=O)c1)c1cccs1 [Example 15, (S)-1-methyl-4-(3-((3-(methylamino)-1-(thiophen-2-yl)propoxy)methyl)phenyl)-1,2,3,4-tetrahydro-5H-benzo[e][1,4]diazepin-5-one] | > 3000 | –
CNCCC(Oc1cccc(N2CCCN(C)CC2)c1)c1cccs1 (stereo not shown) [Example 8, N-methyl-3-(3-(4-methyl-1,4-diazepan-1-yl)phenoxy)-3-(thiophen-2-yl)propan-1-amine] | 100 to 500 | –
CCNC[C@H]1CN(C)CCN(c2cccc(O[C@@H](CCNC)c3ccccc3)c2)C1=O [Example 24, (S)-6-((ethylamino)methyl)-1-methyl-4-(3-((S)-3-(methylamino)-1-phenylpropoxy)phenyl)-1,4-diazepan-5-one] | > 3000 | –
CNCCC(OCc1cccc(N2CCN(C)c3ccccc3C2=O)c1)c1ccccc1 (stereo not shown) [Example 38, 1-Methyl-4-(3-((3-(methylamino)-1-phenylpropoxy)methyl)phenyl)-1,2,3,4-tetrahydro-5H-benzo[e][1,4]diazepin-5-one] | 500 to 3000 | –
CNCCC(Oc1cccc(N2CCN(C)c3cccnc3C2=O)c1)c1cccs1 (stereo not shown) [Example 57, 1-Methyl-4-(3-(3-(methylamino)-1-(thiophen-2-yl)propoxy)phenyl)-1,2,3,4-tetrahydro-5H-pyrido[3,2-e][1,4]diazepin-5-one] | 500 to 3000 | –
CCNC[C@@H]1CC(=O)N(c2cccc(O[C@@H](CCNC)c3ccccc3)c2)CCN1C [Example 23, (S)-7-((ethylamino)methyl)-1-methyl-4-(3-((S)-3-(methylamino)-1-phenylpropoxy)phenyl)-1,4-diazepan-5-one] | > 3000 | –
CNCCC(Oc1cccc(N2CCN(C)CCC2=O)c1)c1ccccc1 (stereo not shown) [Example 32, 1-Methyl-4-(3-(3-(methylamino)-1-phenylpropoxy)phenyl)-1,4-diazepan-5-one] | > 3000 | –
CNCC[C@@H](OCc1cccc(N2CCN(C)c3ccccc3C2=O)c1)c1cccc(F)c1 [Example 41, (R)-4-(3-((1-(3-fluorophenyl)-3-(methylamino)propoxy)methyl)phenyl)-1-methyl-1,2,3,4-tetrahydro-5H-benzo[e][1,4]diazepin-5-one] | > 3000 | –
CNCCC(Oc1cccc(C(=O)N2CCN(C)c3ccccc3C2)c1)c1cccs1 (stereo not shown) [Example 4, (1-Methyl-1,2,3,5-tetrahydro-4H-benzo[e][1,4]diazepin-4-yl)(3-(3-(methylamino)-1-(thiophen-2-yl)propoxy)phenyl)methanone] | 500 to 3000 | –
CNCC(OCc1ccc(N2CCN(C)c3ccccc3C2=O)cc1)c1ccccc1 (stereo not shown) [Example 85, 1-Methyl-4-(4-((2-(methylamino)-1-phenylethoxy)methyl)phenyl)-1,2,3.4-tetrahydro-5H-benzo[e][1,4]diazepin-5-one] | > 3000 | –
